ChEMBL document CHEMBL4261582, “Natural products as inhibitors of Leishmania major dihydroorotate dehydrogenase” (Eur J Med Chem, 2018)
One block for each compound: values may come before it.

Tests used:
[1] = molecular target: T1, Dihydroorotate dehydrogenase (fumarate) (Leishmania major, UniProt Q4QEW7); assay: Inhibition of recombinant oligo-histidine-tagged Leishmania major DHODH expressed in Escherichia coli BL21(DE3) cells using DHO as substrate measured after 60 secs
T1 sequence (Q4QEW7 whole entry): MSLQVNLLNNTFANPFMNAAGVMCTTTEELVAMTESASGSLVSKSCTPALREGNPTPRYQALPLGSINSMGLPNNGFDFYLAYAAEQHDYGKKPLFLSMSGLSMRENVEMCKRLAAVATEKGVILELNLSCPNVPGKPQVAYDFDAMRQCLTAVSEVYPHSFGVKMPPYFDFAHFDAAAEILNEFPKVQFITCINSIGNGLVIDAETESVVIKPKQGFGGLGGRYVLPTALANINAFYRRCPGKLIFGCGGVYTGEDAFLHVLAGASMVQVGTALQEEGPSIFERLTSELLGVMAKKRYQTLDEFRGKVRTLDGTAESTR

[2] = molecular target: Dihydroorotate dehydrogenase (quinone), mitochondrial (Homo sapiens) (UniProt Q02127); assay: Inhibition of human DHODH at 100 uM
[3] = molecular target: T2, Dihydroorotate dehydrogenase (fumarate) (Leishmania major) (UniProt Q4QEW7); assay: Inhibition of recombinant oligo-histidine-tagged Leishmania major DHODH expressed in Escherichia coli BL21(DE3) cells at 100 uM using DHO as substrate measured after 60 secs
T2 sequence (whole entry): T1 sequence (Q4QEW7 whole entry)

Leishmania donovani = assay: Antileishmanial activity against Leishmania donovani MHOM/ET/67/L82 amastigotes after 72 hrs by Alamar Blue assay; assay type: functional, organism-based; conditions: MHOM/ET/67/L82, 72 h
Trypanosoma cruzi [4] = assay: Antitrypanosomal activity against Trypanosoma cruzi Tulahuen C2C4 trypomastigotes infected in rat skeletal myoblasts L-6 cells after 96 hrs by CPRG/Nonidet reagent based spectrophotometric method; assay type: functional, organism-based; conditions: Tulahuen C2C4, L6, 96 h
[5] = tested on: Trypanosoma brucei rhodesiense; assay: Antitrypanosomal activity against Trypanosoma brucei rhodesiense STIB 900 trypomastigotes after 72 hrs by Alamar Blue assay; assay type: functional, organism-based; conditions: STIB 900, 72 h
[6] = molecular target: T2, Dihydroorotate dehydrogenase (fumarate) (Leishmania major); assay: Binding affinity to Leishmania major DHODH assessed as change in melting temperature at 100 uM by differential scanning fluorimetry-based ThermoFMN assay
[7] = molecular target: T2, Dihydroorotate dehydrogenase (fumarate) (Leishmania major); assay: Binding affinity to Leishmania major DHODH assessed as change in melting temperature at 500 uM by differential scanning fluorimetry-based ThermoFMN assay
[8] = molecular target: T2, Dihydroorotate dehydrogenase (fumarate) (Leishmania major); assay: Binding affinity to Leishmania major DHODH assessed as change in melting temperature at 1000 uM by differential scanning fluorimetry-based ThermoFMN assay
[9] = molecular target: T2, Dihydroorotate dehydrogenase (fumarate) (Leishmania major); assay: Binding affinity to Leishmania major DHODH assessed as change in melting temperature at 100 uM by SYPRO orange dye-based differential scanning fluorimetry
[10] = molecular target: T2, Dihydroorotate dehydrogenase (fumarate) (Leishmania major); assay: Binding affinity to Leishmania major DHODH assessed as change in melting temperature at 500 uM by SYPRO orange dye-based differential scanning fluorimetry
[11] = molecular target: T2, Dihydroorotate dehydrogenase (fumarate) (Leishmania major); assay: Binding affinity to Leishmania major DHODH assessed as change in melting temperature at 1000 uM by SYPRO orange dye-based differential scanning fluorimetry
Leishmania braziliensis = assay: Antileishmanial activity against Leishmania braziliensis H3227 MHOM/BR/94/H-3227 promastigotes after 72 hrs by MTT assay; assay type: functional, organism-based; conditions: H3227 MHOM/BR/94/H-3227, 72 h
Trypanosoma cruzi [12] = assay: Antitrypanosomal activity against Trypanosoma cruzi trypomastigotes; assay type: functional, organism-based
Leishmania amazonensis [13] = assay: Antileishmanial activity against Leishmania amazonensis WHOM/BR/75/Josefa promastigotes after 72 hrs by Neubauer chamber method; assay type: functional, organism-based
Leishmania amazonensis [14] = assay: Antileishmanial activity against Leishmania amazonensis WHOM/BR/75/Josefa amastigotes after 72 hrs by Neubauer chamber method; assay type: functional, organism-based
Leishmania amazonensis [15] = assay: Antileishmanial activity against Leishmania amazonensis MHOM/77BR/LTB0016 promastigotes after 72 hrs by MTT assay; assay type: functional, organism-based; conditions: MHOM/77BR/LTB0016, 72 h
Leishmania amazonensis [16] = assay: Antileishmanial activity against Leishmania amazonensis MHOM/77BR/LTB0016 amastigotes infected in mouse peritoneal macrophages after 48 hrs by Giemsa staining-based assay; assay type: functional, organism-based; conditions: MHOM/77BR/LTB0016, 48 h
Leishmania amazonensis [17] = assay: Antileishmanial activity against Leishmania amazonensis promastigotes; assay type: functional, organism-based

Dihydroorotate dehydrogenase (quinone), mitochondrial (Homo sapiens), sequence (Q02127 whole entry): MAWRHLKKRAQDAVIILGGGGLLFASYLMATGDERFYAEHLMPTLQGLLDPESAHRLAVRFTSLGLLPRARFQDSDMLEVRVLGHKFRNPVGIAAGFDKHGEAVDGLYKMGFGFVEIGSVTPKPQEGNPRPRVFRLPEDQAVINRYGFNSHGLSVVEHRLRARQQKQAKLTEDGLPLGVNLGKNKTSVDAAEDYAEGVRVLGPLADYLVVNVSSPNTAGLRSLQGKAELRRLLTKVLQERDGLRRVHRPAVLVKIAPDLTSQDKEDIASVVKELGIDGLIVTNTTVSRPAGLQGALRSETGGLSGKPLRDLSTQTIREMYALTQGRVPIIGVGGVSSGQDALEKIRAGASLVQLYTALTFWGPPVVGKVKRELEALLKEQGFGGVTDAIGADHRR

Structure (SMILES): O=C(/C=C/c1ccc(O)c(O)c1)O[C@@H]1CC(O)(C(=O)O)C[C@@H](OC(=O)/C=C/c2ccc(O)c(O)c2)C1O (stereo partly specified)
IC50 ([1]; read-out: IC50): 1280 µM

Structure (SMILES): O=c1c(O)c(-c2cc(O)c(O)c(O)c2)oc2cc(O)cc(O)c12 [MYRICETIN]
inhibition [2]: 41%
inhibition [3]: 67%
IC50 (Leishmania donovani): 4.08 µM
IC50 (Trypanosoma cruzi [4]): 94.3 µM
IC50 [5]: 50 µM

Structure (SMILES): COc1ccc(-c2oc3cc(O)cc(O)c3c(=O)c2O)cc1O [TAMARIXETIN]
inhibition [2]: 29%
inhibition [3]: 46%
IC50 ([1]; read-out: IC50): 93.7 µM
IC50 (Leishmania donovani): 53.1 µM
IC50 (Trypanosoma cruzi [4]): 20.2 µM
IC50 [5]: 46.8 µM

Structure (SMILES): C=C1C[C@@]23CC[C@H]4[C@@](C)(CCC[C@@]4(C)C(=O)O)[C@@H]2CC[C@@H]1C3 [KAURENOIC ACID]
inhibition [2]: 28%
inhibition [3]: 40%
IC50 ([1]; read-out: IC50): 31.5 µM
IC50 (Leishmania amazonensis [13]): 93.3 µM
IC50 (Leishmania amazonensis [14]): 11.7 µM

Structure (SMILES): C=C1C(=O)O[C@@H]2/C=C(/CO)C3=CC(=O)[C@@](C)(C[C@@H](OC(=O)/C(C)=C/C)[C@@H]12)O3 [BUDLEIN A]
IC50 ([1]; read-out: IC50): 263 µM

Structure (SMILES): COc1cc(/C=C/C(=O)O)ccc1O [FERULATE]
IC50 ([1]; read-out: IC50): 413 µM
IC50 (Leishmania donovani): 155 µM
IC50 (Trypanosoma cruzi [4]): 155 µM
IC50 [5]: 428 µM
IC50 (Leishmania amazonensis [15]): 1.7 µM
IC50 (Leishmania amazonensis [16]): 7.9 µM

Structure (SMILES): O=C(O)/C=C/c1ccccc1 [CINNAMIC ACID]
IC50 ([1]; read-out: IC50): 392 µM
IC50 (Leishmania amazonensis [17]): 15.5 µM
IC50 (Leishmania donovani): 37.8 µM
IC50 (Trypanosoma cruzi [4]): 203 µM
IC50 [5]: 223 µM

Structure (SMILES): O=C(O)/C=C/c1ccc(O)c(O)c1 [CAFFEIC ACID]
IC50 ([1]; read-out: IC50): 1750 µM
IC50 (Leishmania donovani): 31.1 µM
IC50 (Trypanosoma cruzi [4]): 167 µM
IC50 [5]: 6.11 µM
IC50 (Leishmania amazonensis [15]): 5.2 µM
IC50 (Leishmania amazonensis [16]): 16 µM

Structure (SMILES): O=c1c(O)c(-c2ccc(O)cc2)oc2cc(O)cc(O)c12 [KAEMPFEROL]
IC50 ([1]; read-out: IC50): 389 µM
IC50 (Leishmania donovani): 10.1 µM
IC50 (Trypanosoma cruzi [4]): 83.5 µM
IC50 [5]: 32.2 µM

The next lines start with results.

IC50 ([1]; read-out: IC50): 796 µM
ΔTm [6]: -0.26 °C
ΔTm [7]: -0.32 °C
ΔTm [8]: -0.52 °C
ΔTm [9]: -0.07 °C
ΔTm [10]: -0.06 °C
ΔTm [11]: -0.19 °C
Structure (SMILES): C=C1C(=O)O[C@@H]2C[C@H](C)[C@@]3(O)C[C@H](O)[C@@](C)(C[C@@H](OC(=O)C(C)C)[C@@H]12)O3 [TAGITININ A]
IC50 (Leishmania braziliensis): 20.4 µM

IC50 ([1]; read-out: IC50): 985 µM
IC50 ([1]; read-out: pIC50 (converted)): 794 µM
ΔTm [6]: -0.15 °C
ΔTm [7]: -0.32 °C
ΔTm [8]: -0.61 °C
ΔTm [9]: -0.13 °C
ΔTm [10]: -0.96 °C
ΔTm [11]: -1.83 °C
Structure (SMILES): CC[C@@H](C)[C@@]1(O)O[C@H]2C[C@@]3(C)OC(=CC3=O)/C(CO)=C\[C@H]3OC(=O)[C@@]1(C)[C@H]23

inhibition [2]: 16%
inhibition [3]: 35%
IC50 ([1]; read-out: IC50): 163 µM
Structure (SMILES): O=c1c(O)c(-c2ccc(O[C@@H]3O[C@H](CO)[C@@H](O)[C@H](O)[C@H]3O)c(O)c2)oc2cc(O)cc(O)c12 [SPIRAEOSIDE]

IC50 ([1]; read-out: IC50): 662 µM
Structure (SMILES): C=C(C)C(=O)O[C@@H]1C[C@](C)(O)[C@@H]2C(=O)C=C(C)[C@@H]2[C@H]2OC(=O)C(=C)[C@@H]21

inhibition [2]: 10%
inhibition [3]: 38%
IC50 ([1]; read-out: IC50): 73.2 µM
IC50 (Trypanosoma cruzi [12]): 286 µM
Structure (SMILES): O=C(/C=C/c1ccc(O)c(O)c1)O[C@H]1[C@H](O)C[C@](O)(C(=O)O)C[C@H]1OC(=O)/C=C/c1ccc(O)c(O)c1

IC50 ([1]; read-out: IC50): 278 µM
IC50 (Trypanosoma cruzi [12]): 514 µM
Structure (SMILES): C=C(C)C(=O)O[C@H]1C[C@@]2(C)OC(=CC2=O)/C(C)=C\[C@H]2OC(=O)C(=C)[C@H]12

IC50 ([1]; read-out: IC50): 346 µM
Structure (SMILES): C/C=C(/C)[C@@]1(O)O[C@H]2C[C@@]3(C)OC(=CC3=O)/C(C)=C\[C@H]3OC(=O)[C@@]1(C)[C@H]23

IC50 ([1]; read-out: IC50): 145 µM
ΔTm [6]: -0.27 °C
ΔTm [7]: -0.22 °C
ΔTm [8]: -0.27 °C
ΔTm [9]: -0.18 °C
ΔTm [10]: -0.27 °C
ΔTm [11]: -0.45 °C
Structure (SMILES): C=C(C)C(=O)O[C@H]1C[C@@]2(C)OC(=CC2=O)[C@@H](C)C[C@H]2OC(=O)C(=C)[C@H]12

IC50 ([1]; read-out: IC50): 644 µM
ΔTm [6]: -0.48 °C
ΔTm [7]: -1.07 °C
ΔTm [8]: -1.48 °C
ΔTm [9]: -0.09 °C
ΔTm [10]: -0.17 °C
ΔTm [11]: -0.07 °C
Structure (SMILES): C=C1C(=O)O[C@@H]2/C=C(\C)CC/C=C(/C=O)[C@@H](O)[C@@H](OC(=O)/C(C)=C\C)[C@@H]12

IC50 ([1]; read-out: IC50): 2620 µM
Structure (SMILES): C=C1CC[C@H]2[C@@](C)(CCC[C@@]2(C)C(=O)O)[C@@H]1CCc1ccoc1
